Test results from patent publication US8623885B2, “Fused tricyclic dual inhibitors of CDK 4/6 and FLT3” (Amgen Inc., priority 2011, dated 2014).
“Also recorded” adds a separate entry of the source.

Columns and labels:
MOLM13 cells = experiment: [14C]-thymidine incorporation cell proliferation assay, MOLM13; format: cell-based, human
Method: The cell proliferation inhibition potency of the CDK4/6-FLT3 inhibitors was determined by using a [^14C]-thymidine incorporation assay. Exponentially growing cells (MOLM-13, Colo-205, etc.) were seeded in a 96-well Cytostar T plate (GE Healthcare Biosciences) at a density of 5×10^3 cells/well and incubated overnight. Serially diluted compounds and 0.1 μCi of [^14C]-thymidine (GE Healthcare Biosciences) were added to each well on the following day. After 72 hour incubation, isotope incorporation was determined with a β plate counter (Wallac). MOLM13 is a human AML tumor cell line expressing FLT3, FLT3^ITD and wild type Rb.
(§1) IC50 values of the compounds in the above assays were determined by non-linear regression analysis using Prism (GraphPad Software).

CDK4/Cyclin D1 = CDK4/Cyclin D1 (Homo sapiens (Human), UniProt P11802); experiment: CDK4 filtration kinase assay; format: biochemical; details: CDK4/Cyclin D1, Rb fragment substrate, [33P]-ATP filtration assay
Method: The CDK4 and CDK1 inhibitory activity of the CDK4/6-FLT3 inhibitors was determined with a filtration kinase assay. The compounds, kinase and substrate diluted in the kinase buffer (20 mM Tris, pH7.4, 50 mM NaCl, 1 mM DTT, 0.1% BSA) were sequentially added to a 96-well Multiscreen HTS filtration plate (Millipore). The final 100 μL reaction mixture in each well contained 0.3 μg of CDK4/Cyclin D1 or CDK1/Cyclin B (Cell Signaling Technology), 1 μg of Rb fragment (aa773-928, Millipore) for the CDK4 assay or 5 μg of histone H1 for the CDK1 assay and 1 μCi of [^33P]-ATP. The mixture was incubated at room temperature for 1 hour. The proteins in the reaction were then precipitated and washed with cold TCA solution using an aspiration/filtration vacuum system. The plates were dried at room temperature, and the retained radioactivity was measured by scintillation counting.
as §1

[1] = test system: MOLM13 subcutaneous xenograft tumors; experiment: Tumor growth inhibition in AML MOLM13 xenograft tumors; format: in vivo, CrTac:NCR-Foxn1nu nude mice
Method: The AML cell line, MOLM13, (obtained from American Type Culture Collection, Manassas, Va., USA) was cultured in RPMI-1640 cell growth medium containing 10% fetal bovine serum (commercially obtained from Invitrogen, Carlsbad, Calif. USA). This cell line expresses CDK4/6, one copy of wild type FLT3 kinase and one copy of FLT3-ITD, which results in constitutive activation of FLT3 activity. Therefore, the activity of Example 5 against both FLT3 and CDK4/6 can be tested in this tumor cell. Tumor cells (7.5 million) were injected subcutaneously onto the right flank of CrTac:NCR-Foxn1^nu nude mice (commercially available from Taconic Farms, Inc, Hudson, N.Y. USA). Tumors were allowed to grow for 6 days. […] Tumors were measured every other day using two-dimensional calipers and tumor volumes were estimated using the equation Width^2×Length×0.5. […] Statistical significance was evaluated using RMANOVA on log transformed tumor volume with baseline as covariate.

[2] = test system: Colo205 human colon carcinoma xenograft tumors; experiment: Tumor growth inhibition in Colo205 xenograft tumors; format: in vivo, CrTac:NCR-Foxn1nu nude mice
Method: The activity of Example 5 was evaluated in the human colon carcinoma, Colo205, xenograft tumor model. This cell line expresses CDK4/6 but not FLT3. Therefore, this system will measure the activity of Example 5 against CDK4/6. Colo205 cells (obtained from American Type Culture Collection, Manassas, Va., USA) were cultured in DMEM cell growth medium containing 10% fetal bovine serum (commercially obtained from Invitrogen, Carlsbad, Calif. USA). Two million cells were innoculated on the right flank of CrTac:NCR-Foxn1^nu nude mice (commercially available from Taconic Farms, Inc, Hudson, N.Y. USA) and allowed to grow for 13 days. Mice were then distributed into groups of 10 mice based on ranking of initial tumor volume to achieve groups in which the average tumor size was 170 mm^3 Example 5 was formulated in 2% HPMC (Hypermellose; HY122-13; commercially available from Spectrum Chemical Manufacturing Gardena, Calif. USA)/1% Tween-80 (Crillet 4 HP; commercially available from Croda, Inc Edison, N.J. USA) and dosed daily or twice daily 6 hours apart for a total of 10 days with 12.5 mg/kg, 25 mg/kg, 37.5 mg/kg, or 50 mg/kg. Tumors were measured every other day using two-dimensional calipers and tumor volumes were estimated using the equation Width^2×Length×0.5. […] Statistical significance was evaluated using RMANOVA on log transformed tumor volume with baseline as covariate.

[3] = biological target: FLT3 enzyme (GST-FLT3 fusion) (Homo sapiens (Human), UniProt P36888); experiment: FLT3 HTRF kinase assay; format: biochemical; details: 116 μM ATP
Method: The FLT3 inhibitory activity of the CDK4/6-FLT3 inhibitors was determined with a HTRF kinase assay. The FLT3 enzyme (GST-FLT3 fusion) was purchased from Carna Biosciences. An ULight-labeled synthetic peptide derived from human Janus kinase 1 (aa1015-1027, ULight-JAK1, PerkinElmer) was utilized as the phosphoacceptor substrate. The assay was conducted in a 384-well white OptiPlate (PerkinElmer). The 20 μL reaction mixture contained 50 nM ULight-JAK1, 116 μM ATP, 0.0385 ng/μL FLT3 and dilutions of test compounds in the kinase buffer (50 mM Hepes, pH 7.6, 1 mM EGTA, 10 mM MgCl2, 2 mM DTT, and 0.005% Tween 20). The reaction was allowed to proceed for 1 hour at room temperature and was stopped by adding 20 μL of 10 mM EDTA, 2 nM LANCE® Eu-W1024 anti-phospho-tyrosine antibody in LANCE® detection buffer (PerkinElmer). The plates were incubated at room temperature for 2 hours after addition of detection reagents and then read on an Envision multimode reader (PerkinElmer).
as §1

neointima formation = details: animal models; cited from earlier work
[4] = Homo sapiens, MOLM-13, 72 hour incubation

Chain of FLT3 enzyme (GST-FLT3 fusion) (P36888 27-993): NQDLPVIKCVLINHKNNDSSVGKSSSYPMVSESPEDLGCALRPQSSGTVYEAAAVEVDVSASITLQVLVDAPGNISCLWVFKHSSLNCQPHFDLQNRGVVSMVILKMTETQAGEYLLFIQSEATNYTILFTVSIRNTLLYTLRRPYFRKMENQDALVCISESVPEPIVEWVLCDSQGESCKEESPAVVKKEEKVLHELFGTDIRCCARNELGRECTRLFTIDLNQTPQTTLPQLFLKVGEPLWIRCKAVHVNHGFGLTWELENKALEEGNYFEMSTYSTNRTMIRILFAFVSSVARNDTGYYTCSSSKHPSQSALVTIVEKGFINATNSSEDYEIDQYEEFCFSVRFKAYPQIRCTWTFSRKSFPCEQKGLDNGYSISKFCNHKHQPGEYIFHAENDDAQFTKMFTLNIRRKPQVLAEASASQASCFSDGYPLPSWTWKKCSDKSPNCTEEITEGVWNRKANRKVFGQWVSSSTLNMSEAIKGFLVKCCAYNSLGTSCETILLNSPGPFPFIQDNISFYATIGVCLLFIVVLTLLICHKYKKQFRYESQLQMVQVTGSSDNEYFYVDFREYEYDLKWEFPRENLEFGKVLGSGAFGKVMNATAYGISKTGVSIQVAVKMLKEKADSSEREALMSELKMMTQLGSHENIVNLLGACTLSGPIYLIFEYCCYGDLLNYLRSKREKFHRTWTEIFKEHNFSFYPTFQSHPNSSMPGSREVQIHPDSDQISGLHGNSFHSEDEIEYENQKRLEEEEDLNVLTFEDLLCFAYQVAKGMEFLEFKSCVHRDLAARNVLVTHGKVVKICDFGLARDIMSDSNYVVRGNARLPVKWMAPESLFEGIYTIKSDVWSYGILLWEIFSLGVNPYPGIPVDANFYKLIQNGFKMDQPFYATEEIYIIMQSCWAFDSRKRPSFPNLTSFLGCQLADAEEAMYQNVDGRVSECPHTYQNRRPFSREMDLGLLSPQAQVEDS
Chain of CDK4/Cyclin D1 (P11802 whole entry, the tested form may be a part): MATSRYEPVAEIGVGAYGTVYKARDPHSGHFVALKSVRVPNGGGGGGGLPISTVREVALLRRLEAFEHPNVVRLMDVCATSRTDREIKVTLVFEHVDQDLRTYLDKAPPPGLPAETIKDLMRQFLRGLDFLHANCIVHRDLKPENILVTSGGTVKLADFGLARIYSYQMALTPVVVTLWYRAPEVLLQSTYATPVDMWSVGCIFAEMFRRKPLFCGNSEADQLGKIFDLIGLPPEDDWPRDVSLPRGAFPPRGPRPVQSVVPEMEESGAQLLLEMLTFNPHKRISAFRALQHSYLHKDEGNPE
Chain of CDK4/Cyclin D1 (P24385 whole entry partner, the tested form may be a part): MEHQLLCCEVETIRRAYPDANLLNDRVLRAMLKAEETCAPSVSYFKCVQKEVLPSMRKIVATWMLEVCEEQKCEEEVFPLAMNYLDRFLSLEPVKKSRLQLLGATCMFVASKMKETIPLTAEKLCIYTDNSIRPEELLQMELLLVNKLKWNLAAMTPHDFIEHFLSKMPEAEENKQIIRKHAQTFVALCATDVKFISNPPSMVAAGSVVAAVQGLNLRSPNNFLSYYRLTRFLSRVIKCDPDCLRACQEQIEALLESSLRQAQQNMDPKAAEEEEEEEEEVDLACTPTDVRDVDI

Structure (SMILES) | IC50 (MOLM13 cells; [4]) | IC50 (CDK4/Cyclin D1) | IC50 [3] | IC50 (MOLM13 cells; 72 hour incubation) | inhibition of tumor growth (tumor volume) ([1]; 6.25-150 mg/kg, twice daily (BID), 10 days) | tumor volume versus vehicle treated group (RMANOVA) ([1]; all doses) | inhibition of tumor growth (tumor volume) ([2]; 12.5-50 mg/kg, twice daily (BID), 10 days) | tumor volume versus vehicle treated group (RMANOVA) ([2]; all doses) | inhibition of neointima formation (neointima formation)
C[C@H]1CC[C@H](n2c3cnccc3c3cnc(Nc4ccc5c(n4)CCN(C(=O)CO)C5)nc32)CC1 [Example 5, 2-hydroxy-1-(2-((9-((1r,4r)-4-methylcyclohexyl)-9H-pyrido[4′,3′:4,5]pyrrolo[2,3-d]pyrimidin-2-yl)amino)-7,8-dihydro-1,6-naphthyridin-6(5H)-yl)ethanone] | 19 nM | 2.4 nM | 1.5 nM |  | dose dependent anti-tumor activity; also recorded: Dose-dependent inhibition of tumor growth | statistically different from the vehicle treated group | dose dependent anti-tumor activity; also recorded: Dose-dependent inhibition of tumor growth | statistically different from the vehicle treated group | 
COc1ccc(CNc2nc(N(CCO)CCO)nc3c2ncn3C(C)C)cc1 [CVT-313] |  |  |  |  |  |  |  |  | significant inhibition of neointima formation
CC(=O)N1Cc2ccc(Nc3ncc4c5ccncc5n([C@H]5CC[C@H](C)CC5)c4n3)nc2[C@H](C)C1 (single isomer, unassigned) [Example 18a, 1((R)-8-Methyl-2-((9-((1r,4R)-4-methylcyclohexyl)-9H-pyrido[4′,3′:4,5]pyrrolo[2,3-d]pyrimidin-2-yl)amino)-7,8-dihydro-1,6-naphthyridin-6(5H)-yl)ethanone or 1((S)-8-methyl-2-((9-((1r,4S)-4-methylcyclohexyl)-9H-pyrido[4′,3′:4,5]pyrrolo[2,3-d]pyrimidin-2-yl)amino)-7,8-dihydro-1,6-naphthyridin-6(5H)-yl)ethanone] |  | 18.8 nM | 1.6 nM | 24.2 nM |  |  |  |  | 

Further compounds by falling IC50 (CDK4/Cyclin D1), results first:

IC50 (MOLM13 cells; [4]) | IC50 (CDK4/Cyclin D1) | IC50 [3] | IC50 (MOLM13 cells; 72 hour incubation) | Structure (SMILES) | inhibition of tumor growth (tumor volume) ([1]; 6.25-150 mg/kg, twice daily (BID), 10 days) | tumor volume versus vehicle treated group (RMANOVA) ([1]; all doses) | inhibition of tumor growth (tumor volume) ([2]; 12.5-50 mg/kg, twice daily (BID), 10 days) | tumor volume versus vehicle treated group (RMANOVA) ([2]; all doses) | inhibition of neointima formation (neointima formation)
204 nM | 1790 nM | 33 nM |  | COc1cc2c3cnc(Nc4ccc5c(n4)CCNC5)nc3n([C@H]3CC[C@H](C)CC3)c2cn1 [Example 19, 6-Methoxy-9-((1r,4r)-4-methylcyclohexyl)-N-(5,6,7,8-tetrahydro-1,6-naphthyridin-2-yl)-9H-pyrido[4′,3′:4,5]pyrrolo[2,3-d]pyrimidin-2-amine] |  |  |  |  | 
10.6 nM | 4.4 nM | 3.2 nM |  | CC(=O)N1Cc2ccc(Nc3ncc4c5ccncc5n([C@H]5CC[C@H](C)CC5)c4n3)nc2C(C)C1 (some centres unmarked) [Example 14, 1-(8-Methyl-2-((9-((1r,4r)-4-methylcyclohexyl)-9H-pyrido[4′,3′:4,5]pyrrolo[2,3-d]pyrimidin-2-yl)amino)-7,8-dihydro-1,6-naphthyridin-6(5H)-yl)ethanone] |  |  |  |  | 
